Assay results from US20250302862A1, “SMALL RNA DRUG FOR INHIBITING ACTIVITY OF CANCER CELLS” (Institute of Basic Medical Sciences Chinese Academy of …, priority 2022, published 2025).

Assays:
Assay type in all cases: cell-based, human
H460 cells [1] = assay: Apoptosis detection (Annexin V / PI); conditions: 100 nmol/L, 48 h
Method: H460 cells with a cell density of more than 90% in 10 cm^2 dishes were plated in 12-well plates according to the cell growth rate, and transfected after 12 h, and the groups were divided as follows: • blank control group (4 wells): 200 uL of opti-MEM per well • negative control group (NC group) and experimental group (3 wells each): the system in each well was as follows • A. 100 uL of opti-MEM and 2 uL of iMax were mixed well for 5 min • B. 100 uL of opti-MEM and 5 uL of small RNA (final concentration 100 nmol/L) were mixed well • C. solution A and solution B were mixed well and let stand for 15 min, and then was added to each well at a 200 uL system • Note: 100 uL of nuclease-free water was added to 2 nmol of small RNA dry powder for dissolution at a storage concentration of 20 umol/L
The supernatant and cells were collected after 48 h and washed twice with pre-chilled PBS. The 4 tubes of cells in the blank control group were added respectively with: (1) 200 uL of 1× binding buffer; (2) 200 uL of 1× binding buffer and 5 uL of Annexin V stain; (3) 200 uL of 1× binding buffer and 5 uL of PI stain; (4) 200 uL of 1× binding buffer, 5 uL of Annexin V stain and 5 uL of PI stain. 200 uL of 1× binding buffer, 5 uL of Annexin V stain and 5 uL of PI stain were added to each tube of both the NC group and the experimental group. The mixture was mixed well and filtered through 300 mesh filters. The live cell population and the position of quadrant gate were selected according to the blank control group, and then the apoptosis of the NC group and the experimental group was detected. […]

H460 cells [2] = assay: Concentration-dependent proliferation inhibition, MTS; conditions: concentration gradient, MTS 48 h after transfection
Method: (§1) 1) H460 and A549 cells with a cell density of more than 90% in 10 cm^2 dishes were plated in 96-well plates according to the cell growth rate, and transfected after 12 h, and the groups (3 wells per group) were divided as follows: • BLANK group: 20 uL of opti-MEM • negative control group (NC group) and experimental group: • A. 10 uL of opti-MEM and 0.2 uL of iMax were mixed well for 5 min • B. 10 uL of opti-MEM and small RNA were mixed well (the concentration gradient of H460 cell experimental group was set as: 0.01 noml/L, 0.03 noml/L, 0.1 noml/L, 0.39 noml/L, 0.78 noml/L, 1.56 noml/L, 3.125 noml/L, 6.25 noml/L, 12.5 noml/L, 25 noml/L, 50 noml/L, 100 noml/L; the concentration gradient of A549 cell experimental group was set as: 0.01 noml/L, 0.03 noml/L, 0.1 noml/L, 0.3 noml/L, 1 noml/L, 3 noml/L, 10 noml/L, 30 noml/L, 100 noml/L, 300 noml/L; the final concentration of sRNA in NC group was 100 noml/L) • C. solution A and solution B were mixed well and let stand for 15 min, and then was added at a 20 ul/well system • Note: 100 uL of nuclease-free water was added to 2 nmol of small RNA dry powder for dissolution at a storage concentration of 20 umol/L
(§2) 2) Detection of cell viability: MTS detection was performed after 48 h.
(§3) Formulation of MTS detection solution was as follows: opti-MEM:MTS A solution:MTS B solution=100:20:1. After removing the supernatant, 100 uL of MTS detection solution was added to each well and incubated for 0.5-2 h. Absorbance values at wavelengths of 490 nm and 630 nm were measured in a microplate reader.
(§4) 1) H460 and A549 cells with a cell density of more than 90% in 10 cm^2 dishes were plated in 96-well plates according to the cell growth rate, and transfected after 12 h, and the groups (3 wells per group) were divided as follows: • blank control group: 20 uL of opti-MEM • negative control group (NC group) and experimental group: • A. 10 uL of opti-MEM and 2 uL of iMax were mixed well for 5 min • B. 10 uL of opti-MEM and small RNA were mixed well (the concentration gradient of H460 cell experimental group was set as: 0.01 noml/L, 0.03 nmol/L, 0.1 noml/L, 0.3 noml/L, 1 noml/L, 3 noml/L, 10 noml/L, 30 noml/L, 100 noml/L, 300 noml/L, 400 noml/L, 500 noml/L; the concentration gradient of A549 cell experimental group was set as: 0.01 noml/L, 0.03 nmol/L, 0.1 noml/L, 0.3 noml/L, 1 noml/L, 3 noml/L, 10 noml/L, 30 noml/L, 100 noml/L, 300 noml/L; the final concentration of sRNA in NC group was 100 noml/L) • C. solution A and solution B were mixed well and let stand for 15 min, and then was added to each well at a 20 uL system • positive group: the concentration of paclitaxel was adjusted to 100 nmol/L • Note: 100 uL of nuclease-free water was added to 2 nmol of small RNA dry powder for dissolution at a storage concentration of 20 umol/L
(§5) 1) H460 and A549 cells with a cell density of more than 90% in 10 cm^2 dishes were plated in 96-well plates according to the cell growth rate, and transfected after 12 h, and the groups (3 wells per group) were divided as follows: • blank control group: 20 uL of opti-MEM • negative control group (NC group) and experimental group: • A. 10 uL of opti-MEM and 0.2 uL of iMax were mixed well for 5 min • B. 10 uL of opti-MEM and small RNA were mixed well (the concentration gradient of H460 cell experimental group was set as: 0.1 noml/L, 0.3 noml/L, 1 noml/L, 3 noml/L, 10 noml/L, 30 noml/L, 100 noml/L, 300 noml/L; the concentration gradient of A549 cell experimental group was set as: 0.01 noml/L, 0.03 nmol/L, 0.1 noml/L, 0.3 noml/L, 1 noml/L, 3 noml/L, 10 noml/L, 30 noml/L, 100 noml/L, 300 noml/L; the final concentration of sRNA in NC group was 100 noml/L) • C. solution A and solution B were mixed well and let stand for 15 min, and then a 20 uL system was added at a 20 uL system • Note: 100 uL of nuclease-free water was added to 2 nmol of small RNA dry powder for dissolution at a storage concentration of 20 umol/L

A549 cells = assay: as above; conditions: concentration gradient, MTS 48 h after transfection
Method: as §1, §2, §3, §4, §5

Row | Substance | apoptosis (H460 cells [1]) | proliferation-inhibiting function (cell activity, MTS) (H460 cells [2]) | proliferation-inhibiting function (cell activity, MTS) (A549 cells)
1 | MDM-sRNA-39: small RNA derived from Maytenus hookeri, sequence GGGAUUGUAGUUCAAUUGGUCAGAGCACC (listed as RNA, chemistry not given here) | promotes | concentration-dependent | concentration-dependent
2 | HQi-sRNA-2: small RNA derived from Scutellaria baicalensis, sequence AUGGUUCGAUUCCGGAGAGGG (listed as RNA, chemistry not given here) | promotes | concentration-dependent | concentration-dependent
3 | MDM-sRNA-163: small RNA derived from Maytenus hookeri, sequence UGACUCUAGUCCGACUUUGUGAAAUGACU (listed as RNA, chemistry not given here) | promotes | concentration-dependent | concentration-dependent
